In PMC6711467 (Drug delivery and translational research, 2018):
Where “and” joins values, the source holds several entries; their conditions need not be identical. Identical values can stand only once. Like-named read-outs stand apart in the source and are kept apart here. Marks after values point to notes of the source that are not given here. Values belong to the molecule of their own block, whether it stands above or below them.

How the values were obtained:
[1] = Release of drug from the gel into a liquid sink; format: in vitro ADME; settings: IQB4012 gel, 1% (w/w) of each drug
[2] = Rectal PK study: IQB4012 gel; format: in vivo, pigtailed macaques; settings: for median drug concentration (min-max), Rectal fluids / median drug concentration (min-max), Rectal tissues: N = 6; for levels in blood plasma: below the LLOQ, data not shown; for concentration at 2 h / concentration at 4 h / concentration at 24 h: female, pigtailed macaque, other: rectal
[3] = in vivo
[4] = Vaginal PK study: IQB4012 gel; settings: for concentration at 2 h / concentration at 4 h / concentration at 24 h: female, pigtailed macaque, other: vaginal
[5] = rectal gel application, 1 or 4 ml
[6] = vaginal fluid, distal, 1.5 ml gel
[7] = vaginal fluid, proximal, 0.5 ml
[8] = vaginal fluid, proximal, 1.5 ml gel
[9] = vaginal tissue, distal, 1.5 ml gel
[10] = vaginal tissue, medial, 1.5 ml gel
[11] = vaginal tissue, proximal, 0.5 ml
[12] = vaginal application, below the LLOQ, data not shown

release from the gel into a liquid sink (Franz Cell) [1]: 53.93 μg/cm ^3h | median concentrations in rectal fluids ([2]; 1 ml gel rectally, 2 to 24 h): 10^3–10^5 ng/ml | median drug concentration (min-max), Rectal fluids ([2]; 1 ml gel rectally, 2 h): 93,375 (2480–420,500) ng/ml | median drug concentration (min-max), Rectal fluids ([2]; 1 ml gel rectally, 4 h): 31,000 (545–873,500) ng/ml | median drug concentration (min-max), Rectal tissues ([2]; 1 ml gel rectally, 4 h): 9087 (BLLOQ^2-15,150) ng/g | median drug concentration (min-max), Rectal fluids ([2]; 1 ml gel rectally, 24 h): 2975 (815–22,900) ng/ml | median drug concentration (min-max), Rectal tissues ([2]; 1 ml gel rectally, 24 h): 127 ^* ng/g | median drug concentration (min-max), Rectal fluids ([2]; 4 ml gel rectally, 2 h): 106,500 (54,600–769,000) ng/ml | median drug concentration (min-max), Rectal fluids ([2]; 4 ml gel rectally, 4 h): 53,775 (9570–930,500) ng/ml | median drug concentration (min-max), Rectal tissues ([2]; 4 ml gel rectally, 4 h): 1277 (BLLOQ-51,304) ng/g | median drug concentration (min-max), Rectal fluids ([2]; 4 ml gel rectally, 24 h): 7065 (608–43,750) ng/ml | median drug concentration (min-max), Rectal tissues ([2]; 4 ml gel rectally, 24 h): 566 (BLLOQ-2228) ng/g | levels in blood plasma ([2]; rectal application): < 10 ng/mL | rectal tissue samples with detectable concentrations ([2]; rectal application, both gel volumes (1 and 4 ml)): 10^2–10^3 ng/g | concentrations sampled in rectal tissues [2, 5]: 10^1–10^3 ng/g | levels in rectal tissue biopsies [3]: below LLOQ | plasma concentrations [3]: < 10 ng/mL
SMILES: Cc1cc(C)cc(C(=O)c2c(C(C)C)c(=O)[nH]c(=O)n2CC2CC2)c1 [IQP-0528]

release from the gel into a liquid sink (Franz Cell) [1]: 82.51 μg/cm ^3h | median drug concentration (min-max), Rectal tissues ([2]; 1 ml gel rectally, 24 h): 659 (BLLOQ-3586) ng/g | median drug concentration (min-max), Rectal tissues ([2]; 4 ml gel rectally, 4 h): 393 (BLLOQ-11,464) ng/g | concentration at 2 h ([2]; rectal fluid, 1 ml): 3230 ng/mL | concentration at 4 h ([2]; rectal fluid, 1 ml): 705 ng/mL | concentration at 24 h ([2]; rectal fluid, 1 ml): 132 ng/mL | concentration at 2 h ([2]; rectal fluid, 4 ml): 5060 ng/mL | concentration at 4 h ([2]; rectal fluid, 4 ml): 864 ng/mL | concentration at 24 h ([2]; rectal fluid, 4 ml): 277 ng/mL | concentration at 4 h ([2]; rectal tissue, 1 ml): 811 ng/g | concentration at 24 h ([2]; rectal tissue, 1 ml): 659 ng/g | concentration at 4 h ([2]; rectal tissue, 4 ml): 393 ng/g | concentration at 24 h ([2]; rectal tissue, 4 ml): 1410 ng/g | concentration at 2 h ([2]; pigtailed, rectal fluid, 1 ml): 3230 ng/mL | concentration at 4 h ([2]; pigtailed, rectal fluid, 1 ml): 705 ng/mL | concentration at 24 h ([2]; pigtailed, rectal fluid, 1 ml): 132 ng/mL | concentration at 2 h ([2]; pigtailed, rectal fluid, 4 ml): 5060 ng/mL | concentration at 4 h ([2]; pigtailed, rectal fluid, 4 ml): 864 ng/mL | concentration at 24 h ([2]; pigtailed, rectal fluid, 4 ml): 277 ng/mL | concentration at 4 h ([2]; pigtailed, rectal tissue, 1 ml): 811 ng/g | concentration at 24 h ([2]; pigtailed, rectal tissue, 4 ml): 1410 ng/g | levels in blood plasma ([2]; rectal application): < 10 ng/mL | concentrations sampled in rectal tissues [2, 5]: 10^1–10^3 ng/g | median concentrations in rectal fluids [2, 5]: 10^2–10^3 ng/ml | median drug concentration (min—max), Vaginal fluids, Proximal ([4]; 0.5 ml gel vaginally, 2 h, N = 6): 158,146 (BLLOQ^2-3,025,157) ng/ml | concentration at 2 h ([4]; rectal fluid, 0.5 ml): 80 ng/mL | concentration at 4 h ([4]; rectal fluid, 0.5 ml): 69 ng/mL | concentration at 24 h ([4]; rectal fluid, 0.5 ml): 53 ng/mL | concentration at 2 h ([4]; rectal fluids, 1.5 ml gel): 138 ng/mL | concentration at 4 h ([4]; rectal fluids, 1.5 ml gel): 156 ng/mL | concentration at 24 h ([4]; rectal fluids, 1.5 ml gel): 127 ng/mL | concentration at 2 h ([4]; vaginal fluid, distal, 0.5 ml): 232000 ng/mL | concentration at 4 h ([4]; vaginal fluid, distal, 0.5 ml): 132000 ng/mL | concentration at 24 h ([4]; vaginal fluid, distal, 0.5 ml): 18700 ng/mL | concentration at 2 h ([4]; vaginal fluid, distal, 1.5 ml): 37200 ng/mL | concentration at 4 h [4, 6]: 153000 ng/mL | concentration at 24 h [4, 6]: 57000 ng/mL | concentration at 4 h [4, 7]: 124000 ng/mL | concentration at 24 h [4, 7]: 48900 ng/mL | concentration at 2 h ([4]; vaginal fluid, proximal, 1.5 ml): 30400 ng/mL | concentration at 4 h [4, 8]: 54300 ng/mL | concentration at 24 h [4, 8]: 18000 ng/mL | concentration at 4 h ([4]; vaginal tissue, distal, 0.5 ml): 13400 ng/g | concentration at 24 h ([4]; vaginal tissue, distal, 0.5 ml): 5910 ng/g | concentration at 4 h [4, 9]: 19200 ng/g | concentration at 24 h [4, 9]: 5380 ng/g | concentration at 4 h ([4]; vaginal tissue, medial, 0.5 ml): 8860 ng/g | concentration at 24 h ([4]; vaginal tissue, medial, 0.5 ml): 3550 ng/g | concentration at 4 h [4, 10]: 10200 ng/g | concentration at 24 h [4, 10]: 12200 ng/g | concentration at 4 h [4, 11]: 4490 ng/g | concentration at 24 h [4, 11]: 16900 ng/g | concentration at 4 h ([4]; vaginal tissue, proximal, 1.5 ml gel): 35100 ng/g | median concentrations in rectal fluids ([4]; vaginal application of either volume (0.5 or 1.5 ml), over 24 h): ≤ 200 ng/mL | concentrations in rectal biopsy tissues [4, 12]: < 1 ng/sample | plasma concentrations [4, 12]: < 10 ng/mL
SMILES: C[C@H](Cn1cnc2c(N)ncnc21)OCP(=O)(O)O [TFV, tenofovir]

median drug concentration (min-max), Rectal tissues ([2]; 1 ml gel rectally, 4 h): 176 ng/g and 176 (BLLOQ-207) ng/g | median drug concentration (min-max), Rectal tissues ([2]; 1 ml gel rectally, 24 h): 70 ng/g and 70 (BLLOQ-128) ng/g | median drug concentration (min-max), Rectal tissues ([2]; 4 ml gel rectally, 4 h): 47 ng/g and 47 (BLLOQ-480) ng/g | median drug concentration (min-max), Rectal tissues ([2]; 4 ml gel rectally, 24 h): 81 ng/g and 81 (BLLOQ-131) ng/g
SMILES: C[C@@H](Cn1cnc2c(N)ncnc21)OCP(=O)(O)OP(=O)(O)OP(=O)(O)O [TFV-DP, TFV-diphosphate]
